Reference: PMC10150365 (Journal of Medicinal Chemistry, 2023)
Converted amounts (≈) assume the structure as drawn. “And” between values parts separate entries of the source, which are not always exact repeats. Identical values can stand only once. Like-named read-outs stand apart in the source and are kept apart here. Marks after values point to notes of the source that are not given here.

Legend:
SK-OV-3 = test: cells; assay type: cell-based, human
physchem [1] = settings: pH 7.4
physchem [2] = settings: pH 7.4; remark: listed apart in the source
in vitro [3] = assay type: in vitro ADME, mouse; settings: male, CD1, mouse, microsomes, pH 7.4; n = 1, fraction unbound assumed 1; read-out: Microsome Clint, mouse (MLM)
in vitro [4] = assay type: in vitro ADME; settings: male, Sprague Dawley, rat, microsomes, pH 7.4; n = 1, fraction unbound assumed 1; read-out: Microsome Clint, rat (RLM)
in vitro [5] = assay type: in vitro ADME; settings: both sexes, human, microsomes, pH 7.4; n = 1, fraction unbound assumed 1; read-out: Microsome Clint, human (HLM)
[6] = iv PK in CF1 wild-type and P-gp-knockout mice; assay type: in vivo, mouse; settings: mouse, whole blood, iv, 5 mg/kg, read-out: Vss
P-gp = test: iv PK in CF1 wild-type and P-gp-knockout mice; assay type: in vivo, mouse; settings: 5 mg/kg iv, 90% CI
Mouse blood PK (BALB/c) = settings: for iv Cltb / Free Cav^0–24h / CLu / Vdu / AUC / Fmax: BALB/c mice; for iv Cltb: iv 5 mg/kg (18: 1 mg/kg); for Free Cav^0–24h: AUC^inf/24*fub; for CLu: CLtb/fub; for Vdu: Vss/fub; for Vd / half-life at 24 h: iv
[7] = Plasma protein binding and blood-to-plasma ratio; settings: for fub: BALB/c mouse blood, fub = fup/B:P; for Plasma, fup: BALB/c mouse, 90% CI
in vitro [8] = assay type: in vitro ADME; settings: mouse; for hepatocyte CLint at 1 h, 1 µM: hepatocytes, n = 1, read-out: Mouse Heps CLint; for Pred. in vivo CLu from Heps: fraction unbound in assay assumed 0.4 or 0.2
[9] = Free fraction in CellTiter-Blue assay medium (dialysis); assay type: in vitro ADME; settings: dialysis from CellTiter-Blue assay medium; 90% CI
[10] = for FaSSGF Concentration, replicates 1-3: pH 1.6, individual replicates; for FaSSIF Concentration, replicates 1-3 / FeSSIF Concentration, replicates 1-3: pH 6.5, individual replicates
physchem [11] = test: physchem
[12] = Homo sapiens, SK-OV-3, 96 h; read-out: SK-OV-3 pGI50 ± SEM (n) (converted)
[13] = Homo sapiens, SK-OV-3; 96 h, CellTiter-Blue, geometric mean; read-out: SK-OV-3 GI50
[14] = female, BALB/c, mouse, in vivo, po, 5 mg/kg
[15] = female, BALB/c, mouse, in vivo, po, 5 mg/kg, AUCu^0–6h, AUC*fub
[16] = female, BALB/c, mouse, in vivo, po, 5 mg/kg, po AUC^0–6h, po 5 mg/kg, 90% CI
[17] = female, BALB/c, mouse, whole blood, po, 5 mg/kg
[18] = pH 1.6, Thermodynamic solubility FaSSGF (mean), pH 1.6, 37 °C, 1 mg/mL (top limit of assay)
[19] = pH 6.5, Thermodynamic solubility FaSSIF (mean), pH 6.5, 37 °C, 1 mg/mL

## Cc1ccc(NC(=O)c2ccc3c(c2)OCCO3)cc1NC(=O)c1ccc2nc(CN3CCCC3C)ccc2c1 (racemic) [Compound 13, Racemic-N-(5-(2,3-Dihydrobenzo[b][1,4]dioxine-6-carboxamido)-2-methylphenyl)-2-((2-methylpyrrolidin-1-yl)methyl)quinoline-6-carboxamide]
SK-OV-3; [12]
  GI50: 7.08 nM
SK-OV-3; [13]
  GI50: 7.1 nM
Physchem [1]
  chromatographic logD: 2.3
Physchem [2]
  solubility kinetic at 2 h, 100 µM: 50 µM (≈ 26.8 µg/mL)

## Cc1ccc(NC(=O)c2ccc3c(c2)OCCO3)cc1NC(=O)c1ccc2nc(CN3CCCC3)ccc2c1 [Compound 11, N-(5-(2,3-Dihydrobenzo[b][1,4]dioxine-6-carboxamido)-2-methylphenyl)-2-(pyrrolidin-1-ylmethyl)quinoline-6-carboxamide]
SK-OV-3; [12]
  GI50: 6.17 nM
SK-OV-3; [13]
  GI50: 6.2 nM
In vitro [3]
  microsomal CLint: 21 µL/min/mg
In vitro [4]
  microsomal CLint at 0.75 h, 1 µM: 20 µL/min/mg
In vitro [5]
  microsomal CLint at 0.75 h, 1 µM: 23 µL/min/mg
Physchem [1]
  chromatographic logD: 1.9
Physchem [2]
  solubility kinetic at 2 h, 100 µM: 40 µM (≈ 20.9 µg/mL)

## Cc1ccc(NC(=O)c2ccc3c(c2)OCCO3)cc1NC(=O)c1ccc2nc(CN(C)C)ccc2c1 [Compound 12, N-(5-(2,3-Dihydrobenzo[b][1,4]dioxine-6-carboxamido)-2-methylphenyl)-2-((dimethylamino)methyl)quinoline-6-carboxamide]
SK-OV-3; [12]
  GI50: 11.7 nM
SK-OV-3; [13]
  GI50: 12 nM
Physchem [1]
  chromatographic logD: 1.4
Physchem [2]
  solubility kinetic at 2 h, 100 µM: 50 µM (≈ 24.8 µg/mL)

## Cc1ccc(NC(=O)c2ccc3c(c2)OCCO3)cc1NC(=O)c1ccc2nc(CN3CCCCC3)ccc2c1 [Compound 14, N-(5-(2,3-Dihydrobenzo[b][1,4]dioxine-6-carboxamido)-2-methylphenyl)-2-(piperidin-1-ylmethyl)quinoline-6-carboxamide]
SK-OV-3; [12]
  GI50: 21.9 nM
SK-OV-3; [13]
  GI50: 73 nM
Physchem [2]
  solubility kinetic at 2 h, 100 µM: 2 µM (≈ 1.07 µg/mL)

## Cc1ccc(NC(=O)c2ccc3c(c2)OCCO3)cc1NC(=O)c1ccc2nc(CN3CCN(C)CC3)ccc2c1 [Compound 15, N-(5-(2,3-Dihydrobenzo[b][1,4]dioxine-6-carboxamido)-2-methylphenyl)-2-((4-methylpiperazin-1-yl)methyl)quinoline-6-carboxamide]
SK-OV-3; [12]
  GI50: 9.55 nM
SK-OV-3; [13]
  GI50: 9.5 nM
In vitro [3]
  microsomal CLint: 21 µL/min/mg
In vitro [4]
  microsomal CLint: 33 µL/min/mg
In vitro [5]
  microsomal CLint: 33 µL/min/mg
Physchem [1]
  chromatographic logD: 1.6
Physchem [2]
  solubility kinetic at 2 h, 100 µM: 80 µM (≈ 44.1 µg/mL)

## Cc1ccc(NC(=O)c2ccc3c(c2)OCCO3)cc1NC(=O)c1ccc2nc(OCCN3CCCCC3)ccc2c1 [Compound 17, N-(5-(2,3-Dihydrobenzo[b][1,4]dioxine-6-carboxamido)-2-methylphenyl)-2-(2-(piperidin-1-yl)ethoxy)quinoline-6-carboxamide]
SK-OV-3; Homo sapiens, SK-OV-3, 96 h, read-out: SK-OV-3 GI50
  GI50: 1.1 nM
SK-OV-3; Homo sapiens, SK-OV-3, 96 h, read-out: SK-OV-3 pGI50 ± SEM (n) (converted)
  GI50: 1.07 nM
[6]; CF1 mdr1a P-gp deficient (CF1-Abcb1amds), CF1^PGP-KO mice
  Vd: 3.6 L/kg
[6]; CF1 wild type, CF1^WT mice
  Vd: 4.7 L/kg
P-gp; CF1^PGP-KO mice
  Cltb: 38 (43-37) mL/min/kg
P-gp; CF1^WT mice
  Cltb: 47 (62-35) mL/min/kg
Mouse blood PK (BALB/c); 90% CI
  iv Cltb: 40 (48–32) mL/min/kg
Mouse blood PK (BALB/c); po
  Free Cav^0–24h: 0.83 nM
Mouse blood PK (BALB/c)
  CLu: 2700 mL/min/kg
  Vdu: 340 L/kg
Mouse blood PK (BALB/c); [14]
  Tmax at 24 h: 2.3 h
  bioavailability at 24 h: 24%
Mouse blood PK (BALB/c); [15]
  AUC: 0.012 µM·h
Mouse blood PK (BALB/c); [16]
  AUC: 0.83 µM·h
Mouse blood PK (BALB/c); female, BALB/c, mouse, whole blood
  Vd: 5.1 L/kg
Mouse blood PK (BALB/c); [17]
  Cmax: 180 nM
  Tmax: 2 h
[7]
  fub: 0.015
  Plasma, fup: 0.022 (0.027-0.017)

## CC(C)N1CCN(Cc2ccc3cc(C(=O)Nc4cc(NC(=O)c5ccc6c(c5)OCCO6)ccc4Cl)ccc3n2)CC1 [Compound 18, N-(2-Chloro-5-(2,3-dihydrobenzo[b][1,4]dioxine-6-carboxamido)phenyl)-2-((4-isopropylpiperazin-1-yl)methyl)quinoline-6-carboxamide]
SK-OV-3; [12]
  GI50: 14.8 nM
SK-OV-3; [13]
  GI50: 15 nM
In vitro [8]
  hepatocyte CLint at 1 h, 1 µM: 28 µL/min/1e6 cells
  Pred. in vivo CLu from Heps: 930 ^i mL/min/kg
[9]
  Assay medium, fua: 0.16 (0.18-0.15)
Physchem [1]
  chromatographic logD: 2.3
Physchem [2]
  solubility kinetic at 2 h, 100 µM: 70 µM (≈ 42 µg/mL)
Mouse blood PK (BALB/c)
  Fmax: 63%
  CLu: 3000 mL/min/kg
  Vdu: 450 L/kg
Mouse blood PK (BALB/c); 90% CI
  iv Cltb: 33 (35–31) mL/min/kg
Mouse blood PK (BALB/c); po
  Free Cav^0–24h: 1.6 nM
Mouse blood PK (BALB/c); female, BALB/c, mouse, in vivo
  Vd: 4.9 L/kg
Mouse blood PK (BALB/c); female, BALB/c, mouse, in vivo, 1 mg/kg
  half-life at 24 h: 2 h
Mouse blood PK (BALB/c); [14]
  Cmax: 550 nM
  Tmax at 24 h: 1.7 h
  bioavailability at 24 h: 63%
Mouse blood PK (BALB/c); [15]
  AUC: 0.026 µM·h
Mouse blood PK (BALB/c); [16]
  AUC: 2.4 µM·h
[7]
  fub: 0.011
  Plasma, fup: 0.012 (0.014-0.010)

## O=C(Nc1ccc(Cl)c(NC(=O)c2ccc3nc(CN4CCNCC4)ccc3c2)c1)c1ccc2c(c1)OCCO2 [Compound 19, N-(2-Chloro-5-(2,3-dihydrobenzo[b][1,4]dioxine-6-carboxamido)phenyl)-2-(piperazin-1-ylmethyl)quinoline-6-carboxamide]
SK-OV-3; [12]
  GI50: 11.5 nM
SK-OV-3; [13]
  GI50: 12 nM

## CN1CCN(Cc2ccc3cc(C(=O)Nc4cc(NC(=O)c5ccc6c(c5)OCCO6)ccc4Cl)ccc3n2)CC1 [Compound 20, N-(2-Chloro-5-(2,3-dihydrobenzo[b][1,4]dioxine-6-carboxamido)phenyl)-2-((4-methylpiperazin-1-yl)methyl)quinoline-6-carboxamide]
SK-OV-3; [12]
  GI50: 19.1 nM
SK-OV-3; [13]
  GI50: 19 nM
Physchem [1]
  chromatographic logD: 2.1
Physchem [2]
  solubility kinetic at 2 h, 100 µM: 30 µM (≈ 17.2 µg/mL)

## CCN1CCN(Cc2ccc3cc(C(=O)Nc4cc(NC(=O)c5ccc6c(c5)OCCO6)ccc4Cl)ccc3n2)CC1 [Compound 21, N-(2-Chloro-5-(2,3-dihydrobenzo[b][1,4]dioxine-6-carboxamido)phenyl)-2-((4-ethylpiperazin-1-yl)methyl)quinoline-6-carboxamide]
SK-OV-3; [12]
  GI50: 11 nM
SK-OV-3; [13]
  GI50: 11 nM
In vitro [8]
  hepatocyte CLint at 1 h, 1 µM: 71 µL/min/1e6 cells
  Pred. in vivo CLu from Heps: 1400 ^i mL/min/kg
[9]
  Assay medium, fua: 0.15 (0.15-0.14)
Physchem [1]
  chromatographic logD: 2.2
Physchem [2]
  solubility kinetic at 2 h, 100 µM: 50 µM (≈ 29.3 µg/mL)
Mouse blood PK (BALB/c)
  Fmax: 69%
  CLu: 5300 mL/min/kg
  Vdu: 1100 L/kg
Mouse blood PK (BALB/c); po
  Free Cav^0–24h: 1.3 nM
Mouse blood PK (BALB/c); female, BALB/c, mouse, in vivo
  bioavailability: 100%
  Vd: 5.7 L/kg
Mouse blood PK (BALB/c); female, BALB/c, mouse, in vivo, 5 mg/kg
  half-life at 24 h: 2.3 h
Mouse blood PK (BALB/c); [14]
  Cmax: 880 nM
  Tmax at 24 h: 1.7 h
  bioavailability: 96%
Mouse blood PK (BALB/c); [15]
  AUC: 0.02 µM·h
Mouse blood PK (BALB/c); [16]
  AUC: 3.9 µM·h
[7]
  fub: 0.0053
  Plasma, fup: 0.013 (0.015-0.011)

## O=c1[nH]c2ccccc2n1C1CCN(CCCC(c2ccc(F)cc2)c2ccc(F)cc2)CC1 [Pimozide]
[10]
  FaSSGF Concentration, replicates 1-3: 0.087 mg/mL and 0.092 mg/mL and 0.090 mg/mL
  FaSSIF Concentration, replicates 1-3: 0.004 mg/mL and 0.003 mg/mL
  FeSSIF Concentration, replicates 1-3: 0.018 mg/mL and 0.008 mg/mL and 0.007 mg/mL
Physchem [11]; [18]
  solubility thermodynamic: 90 µg/mL (≈ 195 µM)
Physchem [11]; [19]
  solubility thermodynamic: 4 µg/mL (≈ 8.67 µM)

## CC(C)NCC(O)COc1cccc2ccccc12 (stereo not drawn) [Propranolol]
[10]
  FaSSGF Concentration, replicates 1-3: 1.246 mg/mL and 1.094 mg/mL and 1.002 mg/mL
  FaSSIF Concentration, replicates 1-3: 0.853 mg/mL and 1.047 mg/mL and 0.931 mg/mL
  FeSSIF Concentration, replicates 1-3: 1.669 mg/mL and 1.812 mg/mL and 1.465 mg/mL
Physchem [11]; [18]
  solubility thermodynamic: 1110 µg/mL (≈ 4300 µM)
Physchem [11]; [19]
  solubility thermodynamic: 944 µg/mL (≈ 3640 µM)
